Reference: patent US20260159482A1, “CRYSTAL FORM AND AMORPHOUS FORM OF CAREBASTINE P-TOLUENESULFONATE” (priority 2023, published 2026)
Counter-ions that a name gives are not always drawn. Like-named read-outs stand apart in the source and are kept apart here.

Assays:
[1] = for AUC0-t / Cmax / T1/2 / Tmax / increase in AUC0-t compared with Comparative Example 1 / increase in AUC0-t compared with Comparative Example 2 / increase in Cmax compared with Comparative Example 1 / increase in Cmax compared with Comparative Example 2: male; for AUC0-t / Cmax / T1/2 / Tmax / Tmax compared with Comparative Example 2 / half-life (T1/2) compared with Comparative Example 2 / increase in AUC0-t compared with Comparative Example 1 / increase in AUC0-t compared with Comparative Example 2 / increase in Cmax compared with Comparative Example 1 / increase in Cmax compared with Comparative Example 2: dog, in vivo; for AUC0-t / Cmax / T1/2 / Tmax: po, 2.23 mg; for half-life (T1/2) compared with Comparative Example 1 / peak time (Tmax) compared with Comparative Example 1: vs ebastine
Protocol: Ebastine (Comparative Example 1), carebastine (Comparative Example 2), a crystal form of carebastine p-toluenesulfonate (Example 2) and an amorphous form of carebastine p-toluenesulfonate (Example X) were prepared into enteric capsules, respectively.
• Species: Beagle; • Level: normal level; • Animal number and gender: 8 males; • Age: […] old during grouping; • Body weight: the weight during grouping ranged from 8.90 to 10.3 kg, with an average of 10.0 kg.
Dose: in terms of carebastine, each group was dosed at equimolar dose, and appropriate amounts of compounds were weighed and filled into capsules. That is, the drug of carebastine in each capsule is 2.23 mg.
After the test compounds were filled into capsules, 2×4 crossover tests were carried out according to the table above. A 7-day elution period was counted from the start of administration. The corresponding test compounds were administered to each group in different test cycles.
All animals were fasted overnight (for 12 h or more) before each administration, and feeding was resumed 4 h after the administration. The animals had free access to drinking water.
Blood samples were collected at 0 h before administration, and at 10 min, 20 min, 30 min, 45 min, 1 h, 2 h, 3 h, 5 h, 6 h, 8 h, 10 h and 24 h after administration, for a total of 13 blood collection time points.
Approximately 2 mL of blood was collected from a forelimb vein at the set blood collection time points and placed in an EDTA-K2 anticoagulation tube. Whole blood samples were kept at room temperature for 1.5 h after the collection and then centrifuged (at 3000 g centrifugal force, 4° C.) for 10 min.
The concentration of carebastine in plasma was determined using liquid chromatography-mass spectrometry-mass spectrometry (HPLC-MS/MS).
The pharmacokinetic parameters of each group were calculated using the non-compartmental model with the WinNonlin software (version 8.3 or higher).

[2] = Stability study: influencing factors (high temperature, high humidity, light exposure), HPLC content; format: physicochemical; conditions: for Content, 0 day: HPLC external standard; for Content, High humidity, 30 days: high humidity (RH80%); for Content, High temperature, 30 days: high temperature (60° C.); for Content, Light exposure, 30 days: light exposure (5000 Lux)
Protocol: 3 parts of each of the samples, carebastine (Comparative Example 2), the crystal form of carebastine p-toluenesulfonate (Example 2), and the amorphous form of carebastine p-toluenesulfonate (Example X), were weighed and placed in a weighing bottle, respectively, and each group of samples was placed under conditions of high temperature (60° C.), high humidity (RH80%) and light exposure (5000 Lux). Then, the samples were taken for detection after 30 days.
Detection method: An appropriate amount of each sample was taken, weighed precisely, dissolved with acetonitrile and quantitatively diluted into a solution containing about 0.08 mg of sample per 1 ml. High performance liquid chromatography (HPLC) was used, with octadecylsilane-bonded silica gel as filler, water-acetonitrile (1:1) as mobile phase, a detection wavelength of 256 nm, a column temperature of 35° C. and an injection volume of 10 μl. Each sample solution was injected into the liquid chromatograph instrument, and the chromatograms were recorded. The content of carebastine was calculated by an external standard method, and the impurity content was calculated by a peak area normalization method.

[3] = Hygroscopicity study (weight gain at 25° C., RH 80%, 24 h); format: physicochemical
Protocol: • (1) The day prior to the test, a dry glass weighing bottle (with an outer diameter of 50 mm and a height of 15 mm) with a lid was placed in a suitable constant temperature dryer (the lower part of which holds a saturated solution of ammonium chloride or ammonium sulphate) at 25° C.±1° C. or an artificial climate chamber (at a temperature of 25° C.±1° C. and a relative humidity of 80%±2%), and the weight (m1) of the bottle with the lid was precisely weighed. • (2) An appropriate amount of the sample to be tested was evenly laid in the weighing bottle, with a thickness of generally about 1 mm, and the weight (m2) of the bottle with the lid was precisely weighed. • (3) The weighing bottle was kept open and placed together with the lid under constant temperature and humidity for 24 h. • (4) The weighing bottle was covered with the lid, and the weight (m3) was precisely weighed. • (5) Percentage of weight gain=(m3−m2)/(m2−m1)×100%.

| Compound | AUC0-t ([1]; beagle) [ng·h/mL] | Cmax ([1]; beagle) [ng/mL] | T1/2 ([1]; beagle) [h] | Tmax ([1]; beagle) [h] | Content, 0 day [2] [%] | Content, High humidity, 30 days ([2]; 30 days) [%] | Content, High temperature, 30 days ([2]; 30 days) [%] | Content, Light exposure, 30 days ([2]; 30 days) [%] | Percentage of weight gain (%) [3] [%] | half-life (T1/2) compared with Comparative Example 1 ([1]; beagle) | peak time (Tmax) compared with Comparative Example 1 ([1]; beagle) | Tmax compared with Comparative Example 2 [1] | half-life (T1/2) compared with Comparative Example 2 [1] | increase in AUC0-t compared with Comparative Example 1 ([1]; beagle) | increase in AUC0-t compared with Comparative Example 2 ([1]; beagle) | increase in Cmax compared with Comparative Example 1 ([1]; beagle) | increase in Cmax compared with Comparative Example 2 ([1]; beagle) | also measured |
| --- | --- | --- | --- | --- | --- | --- | --- | --- | --- | --- | --- | --- | --- | --- | --- | --- | --- | --- |
| CC(C)(C)c1ccc(C(=O)CCCN2CCC(OC(c3ccccc3)c3ccccc3)CC2)cc1 [Comparative Example 1, ebastine] | 749 ± 127 | 179 ± 85.7 | 4.06 ± 1.19 | 2.25 ± 0.7 | – | – | – | – | – | – | – | – | – | – | – | – | – | – |
| CC(C)(C(=O)O)c1ccc(C(=O)CCCN2CCC(OC(c3ccccc3)c3ccccc3)CC2)cc1 [Comparative Example 2, 2-(4-(4-(4-(diphenylmethoxy)piperidine-1-yl)butyryl)phenyl)-2-methylpropanoic acid, reference compound] | 840 ± 161 | 191 ± 51.4 | 3.74 ± 2.02 | 0.82 ± 0.52 | 99.18 | 98.11 | 98.12 | 87.28 | 6 | – | – | – | – | – | – | – | – | content decrease under high temperature and high humidity ([2]; 30 days, high temperature and high humidity): more than 1.0%; content decrease under light exposure ([2]; 30 days, light exposure): more than 10%; content of the maximum single impurity ([2]; after 30 days of influencing factor tests, peak area normalization): more than 0.5% |
| CC(C)(C(=O)O)c1ccc(C(=O)CCCN2CCC(OC(c3ccccc3)c3ccccc3)CC2)cc1 [Comparative Example 3, carebastine hydrochloride, reference compound] | – | – | – | – | – | – | – | – | – | – | – | – | – | – | – | – | – | Percentage of weight gain (%) ([3]; hydrochloride): 15.9% |
| CC(C)(C(=O)O)c1ccc(C(=O)CCCN2CCC(OC(c3ccccc3)c3ccccc3)CC2)cc1.Cc1ccc(S(=O)(=O)O)cc1 [Example 2, carebastine p-toluenesulfonate] | – | – | – | – | 99.42 | 99.42 | 99.43 | 99.39 | −0.1 | prolonged | significantly shorter | essentially the same | prolonged | about 55% | about 38% | about 65% | about 55% | Cmax and AUC0-t compared with Example X ([1]; beagle, vs amorphous form): slightly higher; T1/2 compared with Example X ([1]; beagle, vs amorphous form): slightly longer |
| CC(C)(C(=O)O)c1ccc(C(=O)CCCN2CCC(OC(c3ccccc3)c3ccccc3)CC2)cc1.Cc1ccc(S(=O)(=O)O)cc1 [Example X, carebastine p-toluenesulfonate] | – | – | – | – | 98.59 | 98.58 | 98.54 | 98.51 | 0.3 | prolonged | significantly shorter | essentially the same | prolonged | ~31% | ~17% | ~46% | ~37% | – |
